Measured values reported in the supplement of paper PMC10307832.

How the values were obtained:
Assay in all cases: relative viability (nuclei count vs DMSO), 5 days (fraction); higher = more cells survive
[1] = compound: CN1CCC(CNc2ccc3ncc(-c4cccc(OC(F)(F)F)c4)n3n2)CC1 [SGI-1776] + Cc1nc(Nc2ncc(C(=O)Nc3c(C)cccc3Cl)s2)cc(N2CCN(CCO)CC2)n1 [Dasatinib] (partner 0.075 µM)
Method in brief: (§1)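 Cells from lung cancer lines were seeded into 1536-well plates and, one day later, dosed by pin tool. Treatments were either a single drug or a fixed dose of an anchor drug with five library-drug doses (not always all listed) in √10 steps. After 5 days, nuclei were stained in a one-step fixation (final 0.05% Triton X-100, 1% formaldehyde, 1 ug/ml Hoechst) and counted on 4× images, and relative viability is the treated-to-vehicle nuclei ratio, as the median of duplicate plates.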

[2] = compound: CN1CCC(CNc2ccc3ncc(-c4cccc(OC(F)(F)F)c4)n3n2)CC1 [SGI-1776] + NC(=O)Nc1cc(-c2cccc(F)c2)sc1C(=O)N[C@H]1CCCNC1 [AZD7762] (partner 0.2 µM)
Method in brief: as §1

[3] = compound: CN1CCC(CNc2ccc3ncc(-c4cccc(OC(F)(F)F)c4)n3n2)CC1 [SGI-1776] + N=C(N)NC(=N)NCCc1ccccc1 [Phenformin] (partner 250 µM)
Method in brief: as §1

[4] = compound: Nc1ccccc1NC(=O)c1ccc(CNC(=O)OCc2cccnc2)cc1 [Entinostat] + Nc1ncn([C@H]2C[C@H](O)[C@@H](CO)O2)c(=O)n1 [Decitabine] (partner 2 µM)
Method in brief: as §1

| Cell Line | relative viability ([1]; first compound 0.08 µM) | relative viability ([1]; first compound 0.8 µM) | relative viability ([1]; first compound 2.53 µM) | relative viability ([1]; first compound 8 µM) | relative viability ([2]; first compound 0.08 µM) | relative viability ([2]; first compound 0.8 µM) | relative viability ([2]; first compound 2.53 µM) | relative viability ([2]; first compound 8 µM) | relative viability ([3]; first compound 0.08 µM) | relative viability ([3]; first compound 0.8 µM) | relative viability ([3]; first compound 2.53 µM) | relative viability ([3]; first compound 8 µM) | relative viability ([4]; first compound 0.02 µM) | relative viability ([4]; first compound 0.06325 µM) | relative viability ([4]; first compound 0.2 µM) | relative viability ([4]; first compound 0.6325 µM) | relative viability ([4]; first compound 2 µM) |
| --- | --- | --- | --- | --- | --- | --- | --- | --- | --- | --- | --- | --- | --- | --- | --- | --- | --- |
| LC-2-ad | 0.726 | 0.521 | 0.397 | 0.402 | 0.886 | 0.901 | 0.771 | 0.691 | 0.572 | 0.554 | 0.667 | 0.362 | 0.833 | 0.74 | 0.642 | 0.611 | 0.438 |
| LCLC-97TM1 | 0.783 | 0.938 | 0.85 | 0.949 | 0.302 | 0.313 | 0.204 | 0.304 | 0.487 | 0.434 | 0.465 | 0.456 | 0.23 | 0.213 | 0.314 | 0.163 | 0.16 |
| LCLC-103H | 0.527 | 0.479 | 0.535 | 0.432 | 0.9 | 0.776 | 0.675 | 0.729 | 0.371 | 0.325 | 0.323 | 0.281 | 0.714 | 0.72 | 0.757 | 0.488 | 0.472 |
| LK-2 | 0.301 | 0.354 | 0.253 | 0.173 | 0.423 | 0.54 | 0.324 | 0.236 | 0.396 | 0.515 | 0.428 | 0.168 | 0.311 | 0.335 | 0.262 | 0.165 | 0.115 |
| LOU-NH91 | 0.571 | 0.597 | 0.555 | 0.43 | 0.797 | 0.793 | 0.7 | 0.593 | 0.754 | 0.733 | 0.716 | 0.565 | 0.813 | 0.788 | 0.802 | 0.771 | 0.689 |
| LU99A | 0.727 | 0.56 | 0.382 | 0.441 | 0.38 | 0.384 | 0.339 | 0.294 | 0.816 | 0.712 | 0.915 | 0.783 | 0.953 | 0.952 | 0.749 | 0.696 | 0.646 |
| LXF-289 | 0.222 | 0.224 | 0.148 | 0.161 | 1.06 | 1.13 | 1.16 | 1.09 | 0.54 | 0.534 | 0.496 | 0.486 | 0.422 | 0.381 | 0.446 | 0.358 | 0.31 |
| NCI-H23 | 0.819 | 0.84 | 0.813 | 0.831 | 0.252 | 0.278 | 0.281 | 0.235 | 0.77 | 0.702 | 0.752 | 0.72 | 0.32 | 0.344 | 0.3 | 0.268 | 0.234 |
| NCI-H322M | 0.27 | 0.252 | 0.208 | 0.252 | 0.631 | 0.568 | 0.524 | 0.646 | 0.875 | 0.846 | 0.786 | 0.552 | 0.742 | 0.722 | 0.787 | 0.725 | 0.665 |
| NCI-H358 | 0.197 | 0.186 | 0.158 | 0.133 | 0.465 | 0.467 | 0.456 | 0.348 | 0.325 | 0.34 | 0.313 | 0.214 | 0.188 | 0.201 | 0.173 | 0.153 | 0.137 |
